Experimental data published in ChEMBL document CHEMBL1938373, “Structure-based design, synthesis and biological evaluation of N-pyrazole, N'-thiazole urea inhibitors of MAP kinase p38α” (Eur J Med Chem, 2012).
The source made the active and inactive calls. The rule behind the calls is not given here.

Molecular target: T1, Mitogen-activated protein kinase 14 (Homo sapiens, UniProt Q16539)
Assay: Inhibition of N-terminus His-tagged human p38alpha expressed in Escherichia coli BL21 DE3 using GST-tagged ATF2 as substrate after 90 mins by HTRF assay

T1 sequence (Q16539 whole entry): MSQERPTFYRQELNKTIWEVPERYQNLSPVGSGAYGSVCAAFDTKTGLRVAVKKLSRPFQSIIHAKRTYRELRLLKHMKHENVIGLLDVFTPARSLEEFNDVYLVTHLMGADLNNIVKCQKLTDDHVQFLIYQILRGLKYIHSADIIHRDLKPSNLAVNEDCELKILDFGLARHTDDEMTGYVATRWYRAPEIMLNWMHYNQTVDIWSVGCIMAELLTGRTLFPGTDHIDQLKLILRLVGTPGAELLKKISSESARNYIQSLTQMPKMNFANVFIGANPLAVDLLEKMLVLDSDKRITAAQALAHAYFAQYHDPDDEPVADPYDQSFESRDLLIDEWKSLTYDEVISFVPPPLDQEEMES

IC50 [nM]	SMILES
639	CCOC(=O)Cc1ccc(-n2nc(C(C)(C)C)cc2NC(=O)Nc2nccs2)cc1
135	CC(C)(C)c1cc(NC(=O)Nc2nccs2)n(-c2ccc(CC(=O)O)cc2)n1

Molecular target: T1, Mitogen-activated protein kinase 14
Assay: Inhibition of p38alpha-mediated MK2 phosphorylation in anisomysin-stimulated human HeLa cells at 0.5 to 50 uM after 2 hrs by immunoblot analysis
Format: cell-based

inhibition	SMILES
inactive	CC(C)(C)c1cc(NC(=O)Nc2nccs2)n(-c2ccc(CC(=O)O)cc2)n1

Molecular target: T1, Mitogen-activated protein kinase 14
Assay: Binding affinity to N-terminus His-tagged human p38alpha expressed in Escherichia coli BL21 DE3 at 1 nM to 10 uM after 5 hrs by fluorescence analysis

Activity	SMILES
inactive	O=C(Nc1nc(CCOCc2ccccc2)cs1)c1cc(F)cc(N2CCOCC2)c1

Molecular target: T1, Mitogen-activated protein kinase 14
Assay: Inhibition of p38alpha-mediated MK2 phosphorylation in anisomysin-stimulated human HeLa cells after 2 hrs by immunoblot analysis

IC50 [nM]	SMILES
6000	CCOC(=O)Cc1ccc(-n2nc(C(C)(C)C)cc2NC(=O)Nc2nccs2)cc1

System: not listed separately
Assay: Solubility of the compound
Format: physicochemical

solubility	SMILES
Insoluble	O=C(Nc1ccc(Cl)c(C(F)(F)F)c1)Nc1nc(CCOCc2ccccc2)cs1

Molecular target: T1, Mitogen-activated protein kinase 14

SMILES	Kd [nM]
CCOC(=O)Cc1ccc(-n2nc(C(C)(C)C)cc2NC(=O)Nc2nccs2)cc1	675
O=C(O)Cc1ccc(-n2nc(C3CCCC3)cc2NC(=O)Nc2nc(CCOCc3ccccc3)cs2)cc1	901
NC(COCc1ccccc1)c1csc(NC(=O)Nc2ccc(Cl)c(F)c2)n1 (stereo not drawn)	13400
Cc1ccc(-n2nc(C(C)(C)C)cc2NC(=O)Nc2nccs2)cc1	990
CC(C)(C)c1cc(NC(=O)Nc2nccs2)n(-c2ccc(CC(=O)O)cc2)n1	196
O=C(O)Cc1cccc(-n2nc(C3CC3)cc2NC(=O)Nc2nc(CCOCc3ccccc3)cs2)c1	14700
O=C(O)Cc1cccc(-n2nc(C3CCCC3)cc2NC(=O)Nc2nc(CCOCc3ccccc3)cs2)c1	580

Second part, the compound after the results:

Kd [nM]	SMILES
287	CC(C)(C)c1cc(NC(=O)Nc2nc(CCOCc3ccccc3)cs2)n(-c2ccc(CC(=O)O)cc2)n1
920	CC(C)(C)c1cc(NC(=O)Nc2nc(CCOCc3ccccc3)cs2)n(-c2cccc(CC(=O)O)c2)n1
303	Cc1ccc(-n2nc(C(C)(C)C)cc2NC(=O)Nc2nc(CCOCc3ccc(F)cc3)cs2)cc1
586	Cc1ccc(-n2nc(C(C)(C)C)cc2NC(=O)Nc2nc(CCOCc3ccncc3)cs2)cc1
382	Cc1ccc(-n2nc(C(C)(C)C)cc2NC(=O)Nc2nc(CCOCc3ccccc3)cs2)cc1
